In PubChem BioAssay AID330 (DTP/NCI, 2004):
Where “and” joins values, the source holds several entries; their conditions need not be identical. Identical values can stand only once. Inconclusive results and toxic doses are left out.

Test system: P388 leukemia ip, CD2F1 mice, survival T/C
Assay: NCI In Vivo Anticancer Drug Screen. Data for tumor model P388 Leukemia (intraperitoneal) in CD2F1 (CDF1) mice
Details: endpoint: median survival time, higher = longer survival
Procedure, shortened: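 Mice carrying the transplanted tumor received test compound or vehicle. Survival was recorded in each group, and the value is the treated-group measurement divided by that of the vehicle-treated control group.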

[1] = dose: 60.0 mg/kg/injection, schedule: Q01DX005 (ip), vehicle: saline with Tween-80
[2] = dose: 6.25 mg/kg/injection, schedule: Q01DX009 (ip), vehicle: Klucel (hydroxypropylcellulose) (HPC)
[3] = dose: 12.5 mg/kg/injection, schedule: Q01DX009 (ip), vehicle: Klucel (hydroxypropylcellulose) (HPC)
[4] = dose: 25.0 mg/kg/injection, schedule: Q01DX009 (ip), vehicle: Klucel (hydroxypropylcellulose) (HPC)
[5] = dose: 100.0 mg/kg/injection, schedule: Q01DX009 (ip), vehicle: Klucel (hydroxypropylcellulose) (HPC)
[6] = dose: 200.0 mg/kg/injection, schedule: Q01DX009 (ip), vehicle: Klucel (hydroxypropylcellulose) (HPC)
[7] = dose: 100.0 mg/kg/injection, schedule: Q04DX003 (ip), vehicle: Klucel (hydroxypropylcellulose) (HPC)
[8] = dose: 200.0 mg/kg/injection, schedule: Q04DX003 (ip), vehicle: Klucel (hydroxypropylcellulose) (HPC)
[9] = dose: 50.0 mg/kg/injection, schedule: Q01DX009 (ip), vehicle: saline with Tween-80
[10] = dose: 100.0 mg/kg/injection, schedule: Q01DX009 (ip), vehicle: saline with Tween-80
[11] = dose: 200.0 mg/kg/injection, schedule: Q01DX009 (ip), vehicle: saline with Tween-80
[12] = dose: 25.0 mg/kg/injection, schedule: Q01DX009 (ip), vehicle: water
[13] = dose: 50.0 mg/kg/injection, schedule: Q01DX009 (ip), vehicle: water
[14] = dose: 400.0 mg/kg/injection, schedule: Q04DX003 (ip), vehicle: Klucel (hydroxypropylcellulose) (HPC)
[15] = dose: 120.0 mg/kg/injection, schedule: Q01DX005 (ip), vehicle: saline with Tween-80
[16] = dose: 240.0 mg/kg/injection, schedule: Q01DX005 (ip), vehicle: saline with Tween-80
[17] = dose: 50.0 mg/kg/injection, schedule: Q01DX005 (ip), vehicle: Klucel (hydroxypropylcellulose) (HPC)
[18] = dose: 100.0 mg/kg/injection, schedule: Q01DX005 (ip), vehicle: Klucel (hydroxypropylcellulose) (HPC)

CCN(CC)C(=S)N1C(=O)C2C3CCC(O3)C2C1=O (centres undefined)
T/C (dose: 15.0 mg/kg/injection, schedule: Q01DX005 (ip), vehicle: saline with Tween-80): 101 % of control | T/C (dose: 30.0 mg/kg/injection, schedule: Q01DX005 (ip), vehicle: saline with Tween-80): 104 % of control | T/C [1]: 110 % of control

C1CCC2=NCCCN2CC1
T/C [2]: 107 % of control | T/C [3]: 103 % of control | T/C [4]: 105 % of control

Cc1ccc(N(C(=O)c2ccc(Cl)cc2)C(=S)C#N)cc1
T/C (dose: 60.0 mg/kg/injection, schedule: Q01DX005 (ip), vehicle: Klucel + Tween-80): 89 % of control | T/C (dose: 120.0 mg/kg/injection, schedule: Q01DX005 (ip), vehicle: Klucel + Tween-80): 95 % of control | T/C (dose: 240.0 mg/kg/injection, schedule: Q01DX005 (ip), vehicle: Klucel + Tween-80): 103 % of control

Nc1ccc2c(c1)Cc1cc(NC=O)ccc1-2
T/C (dose: 12.5 mg/kg/injection, schedule: Q01DX009 (ip), vehicle: saline): 94 % of control | T/C (dose: 25.0 mg/kg/injection, schedule: Q01DX009 (ip), vehicle: saline): 91 % of control | T/C (dose: 50.0 mg/kg/injection, schedule: Q01DX009 (ip), vehicle: saline): 91 % of control | T/C (dose: 100.0 mg/kg/injection, schedule: Q01DX009 (ip), vehicle: saline): 91 % of control

O=C1Nc2ccccc2/C1=C/c1ccc(Cl)c(Cl)c1
T/C [2]: 96 % of control | T/C [3]: 95 % of control | T/C [4]: 92 % of control | T/C [5]: 86 % of control | T/C [6]: 90 % of control

CCOC(=O)c1c(C)c2c(n1C)CCC(C(=O)OCC)C2=O (centres undefined)
T/C (dose: 50.0 mg/kg/injection, schedule: Q04DX003 (ip), vehicle: Klucel (hydroxypropylcellulose) (HPC)): 107 % of control | T/C [7]: 100 % of control | T/C [8]: 91 % of control

Nc1ncnn1Cc1ccccc1
T/C (dose: 25.0 mg/kg/injection, schedule: Q01DX009 (ip), vehicle: saline with Tween-80): 104 % of control | T/C [9]: 100 % of control | T/C [10]: 101 % of control | T/C [11]: 102 % of control

CCOC(=O)CC(CC(=O)OCC)(C(=O)OCC)C(=O)OCC
T/C [9]: 92 % of control | T/C [10]: 100 % of control | T/C [11]: 96 % of control | T/C (dose: 400.0 mg/kg/injection, schedule: Q01DX009 (ip), vehicle: saline with Tween-80): 100 % of control

CCN(CC)CCNC(=O)c1nn(-c2ccccc2)c2c1CCc1ccccc1-2
T/C (dose: 25.0 mg/kg/injection, schedule: Q04DX003 (ip), vehicle: saline): 100 % of control | T/C (dose: 50.0 mg/kg/injection, schedule: Q04DX003 (ip), vehicle: saline): 101 % of control | T/C (dose: 100.0 mg/kg/injection, schedule: Q04DX003 (ip), vehicle: saline): 102 % of control and 107 % of control

CCSC(C(O)C(O)C(O)C(O)CO)n1cnc2c(=S)nc[nH]c21 (centres undefined)
T/C [12]: 97 % of control | T/C [13]: 94 % of control | T/C (dose: 100.0 mg/kg/injection, schedule: Q01DX009 (ip), vehicle: water): 105 % of control | T/C (dose: 200.0 mg/kg/injection, schedule: Q01DX009 (ip), vehicle: water): 105 % of control | T/C (dose: 400.0 mg/kg/injection, schedule: Q01DX009 (ip), vehicle: water): 96 % of control

CC(=O)c1cccc(OCC(O)CN2CCN(c3ccc(C)cc3)CC2)c1 (centres undefined)
T/C [7]: 107 % of control | T/C [14]: 91 % of control

O=C(NN=C(c1ccccc1)c1ccccc1)C(Cl)Cl
T/C (dose: 42.0 mg/kg/injection, schedule: Q01DX009 (ip), vehicle: saline with Tween-80): 99 % of control | T/C (dose: 84.0 mg/kg/injection, schedule: Q01DX009 (ip), vehicle: saline with Tween-80): 97 % of control | T/C (dose: 168.0 mg/kg/injection, schedule: Q01DX009 (ip), vehicle: saline with Tween-80): 97 % of control

CC(N)(CCSCP(=O)(O)O)C(=O)O (centres undefined)
T/C [1]: 99 % of control | T/C [15]: 91 % of control

COc1cc(C2c3cc4c(cc3OC3(O)CCCC23)OCO4)cc(OC)c1OC (centres undefined)
T/C [1]: 91 % of control | T/C [15]: 93 % of control | T/C [16]: 99 % of control

O=c1oc2c(ccc3nc(-c4ccccc4)sc32)c(N2CCOCC2)c1Cl
T/C [17]: 92 % of control | T/C [18]: 91 % of control | T/C (dose: 200.0 mg/kg/injection, schedule: Q01DX005 (ip), vehicle: Klucel (hydroxypropylcellulose) (HPC)): 89 % of control

COc1cc(OC)c(C(=O)O)cc1Cl
T/C [7]: 100 % of control | T/C [8]: 101 % of control | T/C [14]: 100 % of control

CC1(C)OC2OC3C(Br)C(=O)OC3C2O1 (centres undefined)
T/C [1]: 90 % of control | T/C [15]: 94 % of control | T/C [16]: 97 % of control

CN=C(c1ccc(NC(=O)c2ccc(C(=O)Nc3ccc(C(=NC)N(C)C)cc3)c(Cl)c2)cc1)N(C)C
T/C (dose: 0.75 mg/kg/injection, schedule: Q01DX005 (ip), vehicle: saline): 95 % of control | T/C (dose: 1.5 mg/kg/injection, schedule: Q01DX005 (ip), vehicle: saline): 96 % of control | T/C (dose: 3.0 mg/kg/injection, schedule: Q01DX005 (ip), vehicle: saline): 92 % of control | T/C (dose: 3.12 mg/kg/injection, schedule: Q01DX005 (ip), vehicle: saline): 100 % of control

CCc1ccc[n+](CCC2CNc3ccccc32)c1 (centres undefined)
T/C (dose: 12.5 mg/kg/injection, schedule: Q01DX005 (ip), vehicle: saline): 98 % of control | T/C (dose: 25.0 mg/kg/injection, schedule: Q01DX005 (ip), vehicle: saline): 100 % of control | T/C (dose: 50.0 mg/kg/injection, schedule: Q01DX005 (ip), vehicle: saline): 100 % of control and 110 % of control

O=C(O)c1c(-c2ccc(Cl)cc2)c(-c2ccc(Cl)cc2)nn(CCO)c1=O
T/C (dose: 25.0 mg/kg/injection, schedule: Q04DX002 (ip), vehicle: distilled water + Tween-80): 101 % of control | T/C (dose: 50.0 mg/kg/injection, schedule: Q04DX002 (ip), vehicle: distilled water + Tween-80): 100 % of control | T/C (dose: 100.0 mg/kg/injection, schedule: Q04DX002 (ip), vehicle: distilled water + Tween-80): 102 % of control | T/C (dose: 200.0 mg/kg/injection, schedule: Q04DX002 (ip), vehicle: distilled water + Tween-80): 95 % of control

Nc1nc(-c2ccccc2)c(Br)c(=O)[nH]1
T/C (dose: 100.0 mg/kg/injection, schedule: Q01DX005 (ip), vehicle: saline with Tween-80): 112 % of control | T/C (dose: 200.0 mg/kg/injection, schedule: Q01DX005 (ip), vehicle: saline with Tween-80): 105 % of control | T/C (dose: 400.0 mg/kg/injection, schedule: Q01DX005 (ip), vehicle: saline with Tween-80): 100 % of control

Nc1nnc2nc(CC(=O)c3cccc([N+](=O)[O-])c3)c(CC(=O)c3cccc([N+](=O)[O-])c3)nn12
T/C [1]: 96 % of control | T/C [15]: 100 % of control | T/C [16]: 100 % of control

Cc1cccc(-[n+]2noc(N)n2)c1
T/C (dose: 3.13 mg/kg/injection, schedule: Q01DX009 (ip), vehicle: water): 100 % of control | T/C (dose: 6.25 mg/kg/injection, schedule: Q01DX009 (ip), vehicle: water): 100 % of control | T/C (dose: 12.5 mg/kg/injection, schedule: Q01DX009 (ip), vehicle: water): 114 % of control | T/C [12]: 152 % of control | T/C [13]: 167 % of control

O=C1CC(=O)N2CCSC2=N1
T/C (dose: 50.0 mg/kg/injection, schedule: Q04DX003 (ip), vehicle: saline with Tween-80): 102 % of control | T/C (dose: 100.0 mg/kg/injection, schedule: Q04DX003 (ip), vehicle: saline with Tween-80): 101 % of control | T/C (dose: 200.0 mg/kg/injection, schedule: Q04DX003 (ip), vehicle: saline with Tween-80): 102 % of control | T/C (dose: 400.0 mg/kg/injection, schedule: Q04DX003 (ip), vehicle: saline with Tween-80): 98 % of control

CN(C)/N=C/c1ccc(O)cc1
T/C (dose: 50.0 mg/kg/injection, schedule: Q01DX009 (ip), vehicle: Klucel (hydroxypropylcellulose) (HPC)): 118 % of control | T/C [5]: 100 % of control and 101 % of control | T/C [6]: 102 % of control and 114 % of control

CN1C2CCC1CC(O)(c1ccc(Cl)cc1)C2 (centres undefined)
T/C (dose: 12.5 mg/kg/injection, schedule: Q01DX005 (ip), vehicle: Klucel (hydroxypropylcellulose) (HPC)): 100 % of control | T/C (dose: 25.0 mg/kg/injection, schedule: Q01DX005 (ip), vehicle: Klucel (hydroxypropylcellulose) (HPC)): 100 % of control | T/C [17]: 107 % of control | T/C [18]: 109 % of control
